Measurements reported in PMC3794980, “Identification of Conserved and HLA Promiscuous DENV3 T-Cell Epitopes” (PLoS Neglected Tropical Diseases, 2013).

Tests used:
DRB3*0101 = DRB3*0101 (Homo sapiens, UniProt P01903+P79483); assay: biochemical; assay type: binding
DRB5*0101 = DRB5*0101 (Homo sapiens, UniProt P01903+Q30154); assay: biochemical; assay type: binding

Compound | IC50 (DRB3*0101) [µM] | IC50 (DRB5*0101) [µM]
CC[C@H](C)[C@H](NC(=O)[C@@H](NC(=O)[C@H](CCCNC(=N)N)NC(=O)[C@H](CC(=O)O)NC(=O)[C@H](C)NC(=O)[C@H](CCCCN)NC(=O)[C@H](Cc1ccccc1)NC(=O)[C@H](CC(N)=O)NC(=O)[C@H](C)NC(=O)CNC(=O)[C@H](CCSC)NC(=O)[C@@H](N)CCC(=O)O)C(C)C)C(=O)N[C@@H](CC(=O)O)C(=O)N1CCC[C@H]1C(=O)N[C@@H](CCCNC(=N)N)C(=O)O [NS3 413-427] | 0.096 | 1.2
CC(C)[C@H](NC(=O)[C@H](CCC(=O)O)NC(=O)[C@H](Cc1ccc(O)cc1)NC(=O)[C@H](CO)NC(=O)CNC(=O)[C@H](Cc1c[nH]cn1)NC(=O)[C@H](Cc1ccc(O)cc1)NC(=O)[C@H](C)NC(=O)[C@H](Cc1c[nH]c2ccccc12)NC(=O)[C@@H](N)[C@@H](C)O)C(=O)N[C@@H](CCCCN)C(=O)N[C@@H](C)C(=O)N[C@H](C(=O)NCC(=O)N[C@@H](CO)C(=O)N[C@@H](C)C(=O)O)[C@@H](C)O [NS5 301-316] | 0.536 | 1.83
CC[C@H](C)[C@H](NC(=O)[C@@H](NC(=O)[C@H](CCCNC(=N)N)NC(=O)[C@H](CC(=O)O)NC(=O)[C@H](C)NC(=O)[C@H](CCCCN)NC(=O)[C@H](Cc1ccccc1)NC(=O)[C@@H](N)CC(N)=O)C(C)C)C(=O)N[C@@H](CC(=O)O)C(=O)N1CCC[C@H]1C(=O)N[C@@H](CCCNC(=N)N)C(=O)N[C@@H](CCCNC(=N)N)C(=O)N[C@@H](CS)C(=O)N[C@@H](CC(C)C)C(=O)N[C@@H](CCCCN)C(=O)O [NS3 417-431] | 0.632 | 
CC[C@H](C)[C@H](NC(=O)[C@H](Cc1ccc(O)cc1)NC(=O)[C@H](CCC(N)=O)NC(=O)[C@H](CC(=O)O)NC(=O)[C@H](CC(N)=O)NC(=O)[C@H](CCC(=O)O)NC(=O)[C@H](CCCCN)NC(=O)[C@H](CCC(N)=O)NC(=O)[C@@H]1CCCN1C(=O)[C@@H](N)CC(N)=O)C(=O)N[C@@H](Cc1ccccc1)C(=O)N[C@H](C(=O)NCC(=O)N[C@@H](CCC(N)=O)C(=O)N1CCC[C@H]1C(=O)O)[C@@H](C)O [NS3 465-479] | 10.6 | 
CC[C@H](C)[C@H](NC(=O)[C@@H](NC(=O)[C@H](CC(C)C)NC(=O)[C@H](CC(N)=O)NC(=O)[C@H](CCCNC(=N)N)NC(=O)[C@H](CCCCN)NC(=O)[C@H](CCCCN)NC(=O)[C@H](Cc1ccccc1)NC(=O)[C@H](CCSC)NC(=O)[C@H](CCC(=O)O)NC(=O)[C@H](CCC(=O)O)NC(=O)[C@H](CCC(=O)O)NC(=O)[C@H](CC(C)C)NC(=O)[C@H](CCC(=O)O)NC(=O)[C@@H]1CCCN1)[C@@H](C)O)C(=O)O [NS3 177-191] | 10.7 | 
CC[C@H](C)[C@H](NC(=O)[C@@H]1CCCN1C(=O)[C@H](CCCCN)NC(=O)[C@@H](NC(=O)[C@@H](NC(=O)[C@H](CS)NC(=O)[C@@H](N)CC(=O)O)C(C)C)C(C)C)C(=O)N[C@@H](CC(=O)O)C(=O)N[C@@H](CC(=O)O)C(=O)N[C@@H](CCCNC(=N)N)C(=O)N[C@@H](Cc1ccccc1)C(=O)N[C@@H](C)C(=O)N[C@@H](CC(N)=O)C(=O)N[C@@H](C)C(=O)N[C@@H](CC(C)C)C(=O)N[C@@H](CC(C)C)C(=O)N[C@@H](C)C(=O)O [NS5 664-680] | 4.09 | 
CC[C@H](C)[C@H](NC(=O)[C@H](CS)NC(=O)[C@H](Cc1ccccc1)NC(=O)[C@H](CCC(N)=O)NC(=O)[C@H](CC(N)=O)NC(=O)[C@H](CC(N)=O)NC(=O)[C@H](CCCCN)NC(=O)[C@H](CC(C)C)NC(=O)[C@H](Cc1c[nH]c2ccccc12)NC(=O)[C@@H]1CCCN1C(=O)[C@H](CCC(=O)O)NC(=O)[C@@H](NC(=O)[C@H](CCSC)NC(=O)[C@H](CCCCN)NC(=O)[C@@H](N)CC(C)C)C(C)C)C(=O)N[C@@H](CCCCN)C(=O)N[C@H](C(=O)O)C(C)C [NS5 165-181] |  | 0.02
CC[C@H](C)[C@H](NC(=O)CNC(=O)[C@H](CO)NC(=O)[C@H](CCCCN)NC(=O)[C@@H](N)CCCCN)C(=O)N[C@H](C(=O)N[C@@H](CCC(=O)O)C(=O)N[C@H](C(=O)N[C@@H](CC(=O)O)C(=O)N[C@@H](CCCNC(=N)N)C(=O)N[C@H](C(=O)N[C@@H](CCC(=O)O)C(=O)N[C@@H](C)C(=O)N[C@@H](CCCCN)C(=O)N[C@@H](CCC(=O)O)C(=O)NCC(=O)N[C@@H](CC(C)C)C(=O)O)[C@@H](C)O)C(C)C)[C@@H](C)O [NS5 29-45] | 5.38 | 
CC[C@H](C)[C@H](NC(=O)[C@H](CO)NC(=O)[C@@H]1CCCN1C(=O)[C@@H](NC(=O)[C@H](Cc1ccccc1)NC(=O)[C@H](Cc1c[nH]c2ccccc12)NC(=O)[C@@H](NC(=O)[C@@H](NC(=O)[C@H](CCCCN)NC(=O)CN)[C@@H](C)O)C(C)C)C(C)C)C(=O)N[C@@H](CCCCN)C(=O)N[C@@H](C)C(=O)NCC(=O)N[C@@H](CC(N)=O)C(=O)N[C@@H](CC(=O)O)C(=O)O [NS3 357-371] |  | 0.273
CSCC[C@H](NC(=O)[C@H](C)NC(=O)[C@H](CCSC)NC(=O)[C@H](CCC(N)=O)NC(=O)[C@@H](NC(=O)[C@@H](NC(=O)[C@H](CCSC)NC(=O)[C@@H]1CCCN1C(=O)[C@@H](NC(=O)[C@@H](NC(=O)[C@H](CC(=O)O)NC(=O)[C@H](Cc1c[nH]c2ccccc12)NC(=O)[C@@H]1CCCN1)C(C)C)C(C)C)C(C)C)[C@@H](C)O)C(=O)N[C@H](C(=O)N[C@@H](CC(=O)O)C(=O)N[C@H](C(=O)N[C@H](C(=O)O)[C@@H](C)O)[C@@H](C)O)[C@@H](C)O [NS5 330-346] |  | 1.04
CC[C@H](C)[C@H](NC(=O)[C@@H](NC(=O)[C@@H](N)Cc1ccccc1)[C@@H](C)CC)C(=O)N[C@@H](CC(=O)O)C(=O)NCC(=O)N1CCC[C@H]1C(=O)N[C@@H](CC(N)=O)C(=O)N[C@H](C(=O)N1CCC[C@H]1C(=O)N[C@@H](CCC(=O)O)C(=O)N[C@@H](CS)C(=O)N1CCC[C@H]1C(=O)N[C@@H](CO)C(=O)N[C@@H](C)C(=O)N[C@@H](CO)C(=O)O)[C@@H](C)O [NS1 133-147] |  | 6.91
CC[C@H](C)[C@H](NC(=O)[C@H](CC(=O)O)NC(=O)[C@@H](NC(=O)[C@@H](NC(=O)[C@@H](NC(=O)[C@@H](NC(=O)[C@@H](N)Cc1ccccc1)C(C)C)C(C)C)[C@@H](C)O)[C@@H](C)O)C(=O)N[C@@H](CO)C(=O)N[C@@H](CCC(=O)O)C(=O)N[C@@H](CCSC)C(=O)NCC(=O)N[C@@H](C)C(=O)N[C@@H](CC(N)=O)C(=O)N[C@@H](Cc1ccccc1)C(=O)N[C@@H](CCCCN)C(=O)O [NS3 405-419] | 1.59 | 
CC[C@H](C)[C@H](NC(=O)CNC(=O)[C@@H](NC(=O)[C@H](C)NC(=O)[C@@H](NC(=O)[C@H](CS)NC(=O)[C@@H](N)CO)[C@@H](C)CC)[C@@H](C)CC)C(=O)N[C@H](C(=O)N[C@H](C(=O)N[C@@H](CC(C)C)C(=O)N[C@@H](Cc1ccc(O)cc1)C(=O)N[C@@H](CC(C)C)C(=O)NCC(=O)N[C@@H](C)C(=O)N[C@H](C(=O)N[C@H](C(=O)N[C@@H](CCC(N)=O)C(=O)N[C@@H](C)C(=O)O)C(C)C)C(C)C)[C@@H](C)O)[C@@H](C)CC [Envelope 476-493] | 3.83 | 
CC(C)C[C@H](NC(=O)[C@H](CC(=O)O)NC(=O)[C@H](Cc1ccccc1)NC(=O)[C@@H](N)Cc1ccccc1)C(=O)N1CCC[C@H]1C(=O)N[C@@H](CC(C)C)C(=O)N1CCC[C@H]1C(=O)N[C@@H](Cc1c[nH]c2ccccc12)C(=O)N[C@H](C(=O)N[C@@H](CO)C(=O)NCC(=O)N[C@@H](C)C(=O)N[C@H](C(=O)N[C@H](C(=O)N[C@@H](CCC(=O)O)C(=O)O)[C@@H](C)O)[C@@H](C)O)[C@@H](C)O [Envelope 211-225] |  | 16.2
